Results published in article PMC11597210, “A Comprehensive Evaluation of a Coumarin Derivative and Its Corresponding Palladium Complex as Potential Therapeutic Agents in the Treatment of Gynecological Cancers: Synthesis, Characterization, and Cytotoxicity” (Pharmaceutics, 2024).

How the values were obtained:
HeLa cells = assay: CFSE staining of cell proliferation, flow cytometry; assay type: cell-based, human; settings: IC50 dose, 72 h
Method: To analyze the distribution of cells in the different phases of the cell cycle using flow cytometry, cells were collected at the end of the treatment and processed as previously described. To detect the presence of apoptotic cells, the treated HeLa cells were double-stained with Annexin V-FITC/PI in Annexin V-binding buffer according to the manufacturer’s instructions. For caspase activation, cells were incubated with FITC-labeled pan-caspase inhibitor ApoStat (0.5 μg/mL) for 30 min at 37 °C. The cells were then washed, resuspended in PBS, and analyzed using flow cytometry. The effect of the compounds on cell proliferation was analyzed via CFSE staining using flow cytometry in the same manner as previously described. DAF-FM was used to determine the intracellular production of nitric oxide in the treated HeLa cells, DHE was used to detect intracellular superoxide and hydrogen peroxide, and DHR123 was used to detect the cumulative intracellular production of reactive oxygen species and nitrogen species. These assays were performed as described in previously published studies. All flow cytometry data were obtained in a CytoFLEX cytometer (Beckman Coulter, Brea, CA, USA) and analyzed using FlowJo software v10 (Tree Star, Ashland, OR, USA).

[1] = tested on: Peritoneal exudate cells (PECs); assay: Crystal violet (CV) viability assay on primary cells, 72 h; assay type: cell-based, C57BL/6 mice; settings: mouse peritoneal exudate cells, read-out: IC50 PEC CV
Method: Peritoneal exudate cells (PECs) were isolated from the peritonea of 8–12-week-old C57BL/6 mice via a cavity rinse with ice-cold PBS. Cells were seeded in HEPES-buffered RPMI-1640 medium supplemented with 5% heat-inactivated FBS and antibiotics. The animals were from the animal facility of the Institute for Biological Research “Siniša Stanković” (IBISS) National Institute of the Republic of Serbia (Belgrade, Serbia). Animal handling was conducted and protocols were followed by the local Institutional Animal Care and Use Committee (IACUC) in accordance with local guidelines as well as European Community directives (EEC Directive of 1986; 86/609/EEC). The ethical approval number is 323-07-02147/2023-05.
(§1) The cells were treated with a range of CL, CC, and cisplatin concentrations for 72 h. At the end of the treatment, the cell viability was determined using MTT and crystal violet assays, as previously described. PECs were seeded at a density of 1.8 × 10^5 cells/well in 96-well plates, and two hours later, non-adherent cells were removed by washing the wells with PBS. The remaining adherent cells were treated the same way as the tumor cells. The PEC viability was estimated after 72 h of treatment using the CV assay only.

[2] = molecular target: T1, human serum albumin (HSA) (Homo sapiens, UniProt P02768); assay: Spectrofluorimetric titration, HSA fluorescence quenching; assay type: binding; settings: for KSV (Stern–Volmer quenching constant) / kq (quenching rate constant): PBS, 2.0 µM HSA; for ΔH° of HSA binding / ΔS° of HSA binding: van't Hoff, 296–310 K
T1 construct: purchased Sigma-Aldrich
T1 sequence (P02768 25-609): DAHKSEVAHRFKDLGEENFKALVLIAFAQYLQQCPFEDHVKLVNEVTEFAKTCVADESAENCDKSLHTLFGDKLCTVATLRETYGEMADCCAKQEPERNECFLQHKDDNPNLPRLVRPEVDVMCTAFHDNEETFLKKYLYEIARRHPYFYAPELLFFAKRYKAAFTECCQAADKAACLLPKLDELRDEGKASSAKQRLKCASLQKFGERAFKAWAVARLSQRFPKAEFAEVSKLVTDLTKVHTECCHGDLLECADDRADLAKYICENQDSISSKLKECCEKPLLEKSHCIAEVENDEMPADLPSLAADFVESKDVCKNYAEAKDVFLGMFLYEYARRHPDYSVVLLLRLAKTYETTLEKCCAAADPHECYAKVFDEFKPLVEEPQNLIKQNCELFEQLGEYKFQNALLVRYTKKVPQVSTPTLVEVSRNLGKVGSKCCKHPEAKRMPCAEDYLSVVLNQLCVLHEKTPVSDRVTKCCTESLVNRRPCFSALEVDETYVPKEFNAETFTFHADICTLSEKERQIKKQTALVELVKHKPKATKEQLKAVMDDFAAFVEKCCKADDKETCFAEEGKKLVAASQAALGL
Method: The fluorescence spectroscopy method was used to examine the possible binding ways of human serum albumin (HSA) with the investigated compounds. […] The fluorescence of HSA was recorded at an excitation wavelength of 290 nm, while the recording range was set at 300–500 nm. The gradual decrease in the maximum emission intensity of the HSA with an increasing concentration of all investigated compounds was monitored at about 330 nm.
Fluorescence quenching parameters were determined using the Stern–Volmer equation (Equation (2)):(2) I0/I=1+kqτ0Q=1+KSVQ.
The notations in the previous equation include I0 and I as HSA fluorescence intensities in the absence and presence of the quencher, while KSV and kq are the Stern–Volmer quenching constant and the quenching rate constant of HSA, τ0 is the fluorophore lifetime of HSA (in the absence of the quencher), and [Q] is the concentration of the quencher. The binding constant (Kb) and the number of binding sites (n) were calculated using the Hill equation (Equation (3)):(3) logI0−I/I=logKb+nlogQ. where I0 and I represent the HSA fluorescence intensities in the absence and presence of the quencher, and [Q] is the concentration of the quencher.
The thermodynamic parameters ΔH°, ΔS°, and ΔG° were calculated using the following equations:(4) lnKb=−∆H^°/RT+∆S^°/R (5) ∆G^°=∆H^°−T∆S^°
To obtain information on the quenching, binding, and thermodynamic parameters for the interaction of the ligand and complex (CL and CC) towards human serum albumin (HSA), spectrofluorimetric investigations were carried out. All experiments were performed under physiological conditions in phosphate-buffered saline (PBS) and at different temperatures (296 K, 303 K, and 310 K).

[3] = tested on: MCF7 (human breast adenocarcinoma cells); assay: MTT viability assay, 72 h; assay type: cell-based; settings: MCF7, 72 h, mean ± SD
Method: (§2) HeLa (human cervical adenocarcinoma cells), A2780 (human ovarian carcinoma cells), MCF7 (human breast adenocarcinoma cells), and HCT116 (human colorectal carcinoma cells) were purchased from American Type Culture Collection (ATCC, Rockville, MD, USA). HeLa, MCF-7, and HCT116 cells were cultivated in HEPES-buffered RPMI-1640, while A2780 cells were cultivated in DMEM. The media were supplemented with 10% heat-inactivated FBS and antibiotics (100 units/mL penicillin and 100 μg/mL streptomycin). The cells were grown at 37 °C in a humidified atmosphere with 5% CO2. For the viability assays, HeLa (3 × 10^3/well), A2780 (8 × 10^3/well), MCF7 (7 × 10^3/well), and HCT116 (6 × 10^3/well) cells were seeded in adherent flat-bottom 96-well plates. For the flow cytometric analyses, HeLa cells were seeded at 8 × 10^4 in 6-well plates.
as §1

[4] = tested on: A2780 (human ovarian carcinoma cells); assay: MTT viability assay, 72 h; assay type: cell-based; settings: A2780, 72 h, mean ± SD
Method: as §2, §1

[5] = tested on: HCT116 (human colorectal carcinoma cells); assay: MTT viability assay, 72 h; assay type: cell-based; settings: HCT-116, HCT116, 72 h, mean ± SD
Method: as §2, §1

[6] = tested on: HeLa (human cervical adenocarcinoma cells); assay: MTT viability assay, 72 h; assay type: cell-based; settings: mean ± SD of three experiments
Method: as §2, §1

[7] = tested on: MCF7 (human breast adenocarcinoma cells); assay: Crystal violet (CV) viability assay, 72 h; assay type: cell-based; settings: MCF7, 72 h, mean ± SD
Method: as §2, §1

[8] = tested on: A2780 (human ovarian carcinoma cells); assay: Crystal violet (CV) viability assay, 72 h; assay type: cell-based; settings: A2780, 72 h, mean ± SD
Method: as §2, §1

[9] = tested on: HCT116 (human colorectal carcinoma cells); assay: Crystal violet (CV) viability assay, 72 h; assay type: cell-based; settings: HCT-116, HCT116, 72 h, mean ± SD
Method: as §2, §1

[10] = tested on: HeLa (human cervical adenocarcinoma cells); assay: Crystal violet (CV) viability assay, 72 h; assay type: cell-based
Method: as §2, §1

| SMILES | effect on proliferation of HeLa cells (CFSE) (HeLa cells) | IC50 [1] | n (HSA), number of binding sites ([2]; 296 K) | ΔG° of HSA binding ([2]; 296 K) | KSV (Stern–Volmer quenching constant) ([2]; 296 K) | kq (quenching rate constant) ([2]; 296 K) | n (HSA), number of binding sites ([2]; 303 K) | ΔG° of HSA binding ([2]; 303 K) | KSV (Stern–Volmer quenching constant) ([2]; 303 K) | kq (quenching rate constant) ([2]; 303 K) | n (HSA), number of binding sites ([2]; 310 K) | ΔG° of HSA binding ([2]; 310 K) | KSV (Stern–Volmer quenching constant) ([2]; 310 K) | kq (quenching rate constant) ([2]; 310 K) | ΔH° of HSA binding [2] | ΔS° of HSA binding [2] | also measured |
| --- | --- | --- | --- | --- | --- | --- | --- | --- | --- | --- | --- | --- | --- | --- | --- | --- | --- |
| COc1cc([N+]2=C(C)c3c(c4ccc(OC(C)=O)cc4oc3=O)[O][Pd-2]23[O]c2c(c(=O)oc4cc(OC(C)=O)ccc24)C(C)=[N+]3c2ccc(O)c(OC)c2)ccc1O [CC, Bis-3-(1-((4-hydroxy-3-methoxyphenyl)amino)ethylidene)-2,4-dioxochroman-7-yl acetate palladium(II) complex] | does not inhibit the proliferation of HeLa cells | 92.9 µM | 1.07 | -7.921 kcal/mol | 295000 M⁻¹ | 2.95e+13 M⁻¹ | 1.06 | -7.99 kcal/mol | 272000 M⁻¹ | 2.72e+13 M⁻¹ s⁻¹ | 1.10 | -8.059 kcal/mol | 280000 M⁻¹ | 2.8e+13 M⁻¹ s⁻¹ | -5.014 kcal/mol | −41.09 J mol^−1K^−1 |  |
| COc1cc(N/C(C)=C2/C(=O)Oc3cc(OC(C)=O)ccc3C2=O)ccc1O [CL, (E)-3-(1-((4-hydroxy-3-methoxyphenyl)amino)ethylidene)-2,4-dioxochroman-7-yl acetate] | does not inhibit the proliferation of HeLa cells | 96.3 µM | 0.66 | -4.515 kcal/mol | 95600 M⁻¹ | 9.56e+12 M⁻¹ s⁻¹ | 0.71 | -5.533 kcal/mol | 76900 M⁻¹ | 7.69e+12 M⁻¹ s⁻¹ | 1.09 | -6.551 kcal/mol | 72700 M⁻¹ | 7.27e+12 M⁻¹ s⁻¹ | 38.535 kcal/mol | 608.51 J mol^−1K^−1 | IC50 [3]: 45.6 ± 3.5 µM; IC50 [4]: 21.1 ± 1.4 µM; IC50 [5]: 54.4 ± 4.3 µM; IC50 [6]: 11.1 ± 0.4 µM; IC50 [7]: 44 ± 1.7 µM; IC50 [8]: 24.1 ± 1.4 µM; IC50 [9]: 60.2 ± 3.8 µM; IC50 ([10]; CV assay, mean ± SD of three experiments, read-out: IC50 HeLa CV): 17.7 ± 1.2 µM; IC50 ([10]; rounded IC50 used as treatment dose, assay not stated (matches CV), read-out: IC50 values on HeLa cells as used for flow cytometry treatment): 17 µM |
